From US8551999B2, “Heterocyclic compound and pharmaceutical composition thereof” (Otsuka Pharmaceutical Co., Ltd., priority 2007, dated 2013)
pIC50: −log10 of the molar value.

Assays:
[1] = tested on: human chronic myelocytic leukemia cells (KU812); assay: Antiproliferative effect on cancer cells (in vitro), WST-8 assay, KU812; assay type: cell-based; details: 5 days incubation with test compound
Protocol: The growth inhibition on human chronic myelocytic leukemia cells (KU812) was determined by a WST-8 assay according to the method of Singh A K, et al. (Cancer Lett. 1996 Oct. 1; 107(1): 109-15.). In this method, KU812 cells were seeded in RPMI 1640 medium containing 10% fetal bovine serum in a 96-well microplate and incubated at 37° C. for 24 hours in the presence of 5% carbon dioxide. Then, the test compound was added and the cells were incubated for another 5 days. After incubation, 15 μL of 5 mM WST-8 (2-(2-methoxy-4-nitrophenyl)-3-(4-nitrophenyl)-5-(2,4-disulfenyl)-2H-tetrazolium, monosodium salt) was added and the cells were incubated for 2 hours. After the 2-hour incubation, 15 μL of 1% SDS (sodium dodecyl sulfate) was added and the optical density was determined at the measurement wavelength of 450 nm and the reference wavelength of 630 nm, and the difference was calculated. The cell growth activity in each well was defined as the value determined by subtracting the OD in the control well not containing cells (the difference in absorbance between 492 nm and 690 nm) from that in the test well.
(§1) The 50% inhibitory concentration (IC50 (nM)) of the test compound was determined by comparing the cell growth activity in the well containing the test compound with that of the control not containing the test compound.

[2] = tested on: human hepatic cancer cells (HuH-7); assay: Antiproliferative effect on cancer cells (in vitro), sulforhodamine B method, HuH-7; assay type: cell-based; details: HuH-7 cells, 5 days incubation with test compound
Protocol: (§2) Growth inhibition of human hepatic cancer cells (HuH-7) was determined by the sulforhodamine B method based on the method of Skehan P. et al. (J Natl Cancer Inst. 1990 Jul. 4; 82(13): 1107-12). In the study, HuH-7 cells were seeded on DMEM medium containing 10% fetal bovine serum in a 96-well microplate. After 24-hour incubation at 37° C. in the presence of 5% carbon dioxide, the test compound was added and the cells were incubated for another 5 days. After incubation, a trichloroacetic acid solution was added to yield the final concentration of 10% and the cells were left to stand at 4° C. for 1 hour to fix. Then, the cells were washed with water to remove the medium and trichloroacetic acid and dried in the air. The dried cells were stored at 4° C. until they were stained with sulforhodamine B. To each well, 1% acetic acid solution containing 0.4% sulforhodamine B was added and left to stand for 20 to 30 minutes at room temperature. After discarding the supernatant, each well was washed with 1% acetic acid solution, and 10 mM Tris ([…]) solution was added while stirring to elute the dye taken into the cells. Then, the optical density was determined at the measurement wavelength of 492 nm and the reference wavelength of 690 nm, and the difference was calculated. The cell growth activity in each well was defined as the value determined by subtracting the OD in the control well not containing cells (the difference in absorbance between 492 nm and 690 nm) from that in the test well.
as §1

[3] = tested on: human pancreatic cancer cells (HPAC); assay: Antiproliferative effect on cancer cells (in vitro), sulforhodamine B method, HPAC; assay type: cell-based; details: 5 days incubation with test compound
Protocol: as §2, §1
The growth inhibition on human pancreatic cancer cells (HPAC) was also determined by the above method using HPAC instead of HuH-7 and RPMI 1640 medium containing 10% fetal bovine serum instead of the DMEM medium containing 10% fetal bovine serum.

[4] = tested on: Human hepatic cancer cells (HuH-7); assay: Antitumor effect on hepatic cancer cells, HuH-7 (in vivo); details: SCID mice bearing HuH-7 tumor, 10 mg/kg/day orally, once daily, 9 consecutive days; ratio of relative tumor volume treatment/control
Protocol: Human hepatic cancer cells (HuH-7) were transplanted in SCID mice (6 females/group) and the inhibitory effect of the invention on their growth was examined. In the study, 0.2 mL of a cell suspension adjusted to contain 2.5×10^7 cells/mL was injected subcutaneously in the right axilla to prepare tumor bearing mice. When the tumor diameter became 5 mm or more, the animals were allocated to groups based on the tumor volume. The test compound was administered orally as a suspension in 5% gum arabic, once daily, for 9 consecutive days. The control group received 5% gum arabic. Tumor volumes were measured on the following day of the last administration. The relative tumor volume was determined by calculating the ratio of the tumor volume on the following day of the last administration to that at group allocation. The ratio of the relative tumor volume in the treatment group to that in the control group (T/C %) was calculated as the index for the effect. Relative tumor volume=Tumor volume on the following day of the last administration/Tumor volume at group allocation. T/C %=(Mean relative tumor volume in the treatment group/Mean relative tumor volume in the control group)×100.

[5] = tested on: LI90 cells, a human hepatic stellate cell line; assay: Inhibitory effect on collagen synthesis (in vitro); assay type: cell-based; details: in the presence of recombinant human TGF-β1, 3H-proline labelled collagen in supernatant
How it was run: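 Cells serum-starved 3 days in 0.1% FBS MEM, then exposed to test compound with […] recombinant human TGF-β1 for 16 h at 37 °C. Collagen labelled with ³H-proline for 24 h in medium with 0.25 mM ascorbate; acid-soluble supernatant radioactivity measured and IC50 (nM) derived versus untreated cells.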

STAT3 = assay: Inhibitory effect on IL-6-induced STAT3 phosphorylation in human myeloma cells (in vitro); assay type: cell-based; details: U266B1 human myeloma cells, IL-6 1 ng/mL, pSTAT3 (Y705) by flow cytometry
Protocol: The inhibitory effect of the test compound on phosphorylation of STAT3 (signal transducer and activator of transcription-3) in human myeloma cells ([…]) induced by interleukin-6 (IL-6) was examined using the modified method of Tochizawa S. et al. (J Immunol Methods. 2006 Jun. 30; 313(1-2): 29-37). In the study, U266B1 cells were seeded in an RPMI 1640 medium containing 10% fetal bovine serum (FBS) in a 12-well plate and incubated at 37° C. for 2 hours in the presence of carbon dioxide. After incubation, IL-6 was added to yield the concentration of 1 ng/mL and the cells were incubated at 37° C. for 15 minutes in the presence of 5% carbon dioxide. After fixation of the cells by the addition of a buffer containing formaldehyde (Lyse/Fix Buffer, BD Biosciences) at room temperature for 10 minutes, the suspension was centrifuged to remove the supernatant and the cells were treated with ice-cold methanol for 10 minutes to improve the permeability of the cell membrane. The cells were centrifuged to remove methanol and washed twice with Dulbecco's phosphate buffered saline (D-PBS) containing 2% fetal bovine serum (FBS). A fluorescence-labeled anti-phosphorylated STAT3 (pSTAT3) antibody (Alexa Fluor 488-labeled anti-pSTAT3 (Y705) antibody, BD Biosciences) was added for staining in an ice bath for 30 minutes.
The cells were washed once with 2% FBS-containing D-PBS and suspended in 2% FBS-containing D-PBS, and the fluorescence intensity was determined using a flow cytometer (FACS Sort, BD Biosciences). The ratio of fluorescence intensity in the test group to the control group (T/C) was determined from the difference in the geometric mean of pSTAT3 fluorescence intensity between the test compound group of each concentration and the non-stimulated control group according to the following equation by defining the difference in the geometric mean of pSTAT3 fluorescence intensity between the IL-6 induced control and the non-stimulated control as 100%. T/C(%)=([…] of pSTAT3 fluorescence intensity in the cells treated with the test compound—geometric mean of pSTAT3 fluorescence intensity in non-stimulated control)/(geometric mean of fluorescence intensity of IL-6-induced pSTAT3 in the control−geometric mean of pSTAT3 fluorescence intensity in non-stimulated control)×100.
The concentration of the test compound inhibiting phosphorylation of STATS at 50% (IC50; concentration of the test compound corresponding to 50% T/C(%)) was determined using T/C(%) values at the respective concentrations and defined as the index for the inhibitory activity.

Row | pIC50 ([1]; Homo sapiens, 120 h) | pIC50 ([2]; Homo sapiens, 120 h) | pIC50 ([3]; Homo sapiens, 120 h) | pIC50 [5] | melting point [°C] | pIC50 (STAT3) | pIC50 [1] | pIC50 [2] | pIC50 [3] | Compound | T/C % [4] [%]
1 | > 8.70 | > 8.00 | > 7.15 |  |  |  |  |  |  | CC(C)Oc1ccc(CN2CCN(C(=O)c3cc4ccc(Oc5ncc(N(C)C(=O)c6ccc(C(F)(F)F)cc6)cn5)cc4n3C)CC2)cc1.Cl [Example 521, N-(2-{2-[4-(4-Isopropoxybenzyl)piperazine-1-carbonyl]-1-methyl-1H-indol-6-yloxy}pyrimidin-5-yl)-N-methyl-4-trifluoromethyl-benzamide hydrochloride] | <50
2 | > 8.70 | > 8.00 | > 7.15 | > 8.00 | 146 to 147 | > 8.00 |  |  |  | CN(C(=O)c1ccc(C(F)(F)F)cc1)c1ccc(Oc2ccc3c(c2)cc(C(=O)N2CCN(Cc4ccc(OC(F)F)cc4)CC2)n3C)nc1.O=C(O)/C=C\C(=O)O [Example 401, N-(6-{2-[4-(4-Difluoromethoxybenzyl)piperazine-1-carbonyl]-1-methyl-1H-indol-5-yloxy}pyridin-3-yl)-N-methyl-4-trifluoromethyl-benzamide maleate] | <50
3 |  |  |  | > 8.00 |  |  | > 8.70 | > 8.00 | > 7.15 | Br.CN(C(=O)c1ccc(OC(F)(F)F)cc1)c1ccc(Oc2ccc3cc(C(=O)N4CCN(Cc5ccc(OC(F)F)cc5)CC4)n(C)c3c2)nc1 [Example 473, N-(6-{2-[4-(4-Difluoromethoxybenzyl)piperazine-1-carbonyl]-1-methyl-1H-indol-6-yloxy}pyridin-3-yl)-N-methyl-4-trifluoro-methoxybenzamide hydrobromide] | <50
4 |  |  |  |  | 192.5 to 195.4 | > 8.00 |  |  |  | Cc1cc(C(F)(F)F)ccc1C(=O)Nc1ccc(Oc2ccc3cc(C(=O)N4CCN(Cc5ccc(OC(CF)CF)cc5)CC4)n(C)c3c2)nc1.Cl [Example 493, N-[6-(2-{4-[4-(2-Fluoro-1-fluoromethylethoxy)benzyl]piperazine-1-carbonyl}-1-methyl-1H-indol-6-yloxy)pyridin-3-yl]-2-methyl-4-tri-fluoromethylbenzamide hydrochloride] | <50
5 |  |  |  |  | 230.8 to 231.4 | > 8.00 |  |  |  | Br.CN(C(=O)c1ccc(C(F)(F)F)cc1)c1ccc(Oc2ccc3cc(C(=O)N4CCN(Cc5ccc(OC(CF)CF)cc5)CC4)n(C)c3c2)nc1 [Example 445, N-[6-(2-{4-[4-(2-Fluoro-1-fluoromethylethoxy)benzyl]piperazine-1-carbonyl}-1-methyl-1H-indol-6-yloxy)pyridin-3-yl]-N-methyl-4-tri-fluoromethylbenzamide hydrobromide] | <50
